# Reference: PubChem BioAssay (NCI)
#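 GI50 is the concentration that inhibits growth by half. TGI is the concentration that stops growth completely.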
# Tests used:
# Experiment in all cases: DTP human tumour cell line panel, 384-well format
# 786-0 renal = tested on: 786-0 renal
# A498 renal = tested on: A498 renal
# A549 NSCLC = tested on: A549 NSCLC
# ACHN renal = tested on: ACHN renal
# CAKI-1 renal = tested on: CAKI-1 renal
# CCRF-CEM leukemia = tested on: CCRF-CEM leukemia
# COLO 205 colon = tested on: COLO 205 colon
# EKVX NSCLC = tested on: EKVX NSCLC
# HCT-116 colon = tested on: HCT-116 colon
# HCT-15 colon = tested on: HCT-15 colon
# HOP-62 NSCLC = tested on: HOP-62 NSCLC
# HOP-92 NSCLC = tested on: HOP-92 NSCLC
# HS 578T breast = tested on: HS 578T breast
# IGROV1 ovarian = tested on: IGROV1 ovarian
# LOX IMVI melanoma = tested on: LOX IMVI melanoma
# MALME-3M melanoma = tested on: MALME-3M melanoma
# MCF7 breast = tested on: MCF7 breast
# MDA-MB-231 breast = tested on: MDA-MB-231 breast
# MDA-MB-435 melanoma = tested on: MDA-MB-435 melanoma
# MDA-MB-468 breast = tested on: MDA-MB-468 breast
# MOLT-4 leukemia = tested on: MOLT-4 leukemia
# NCI-H226 lung = tested on: NCI-H226 lung
# NCI-H322M lung = tested on: NCI-H322M lung
# NCI-H522 lung = tested on: NCI-H522 lung
# NCI/ADR-RES ovarian = tested on: NCI/ADR-RES ovarian
# OVCAR-3 ovarian = tested on: OVCAR-3 ovarian
# OVCAR-4 ovarian = tested on: OVCAR-4 ovarian
# OVCAR-5 ovarian = tested on: OVCAR-5 ovarian
# OVCAR-8 ovarian = tested on: OVCAR-8 ovarian
# PC-3 prostate = tested on: PC-3 prostate
# RPMI-8226 leukemia = tested on: RPMI-8226 leukemia
# RXF 393 renal = tested on: RXF 393 renal
# SF-268 CNS = tested on: SF-268 CNS
# SF-295 CNS = tested on: SF-295 CNS
# SF-539 CNS = tested on: SF-539 CNS
# SK-MEL-2 melanoma = tested on: SK-MEL-2 melanoma
# SK-MEL-28 melanoma = tested on: SK-MEL-28 melanoma
# SK-MEL-5 melanoma = tested on: SK-MEL-5 melanoma
# SK-OV-3 ovarian = tested on: SK-OV-3 ovarian
# SN12C renal = tested on: SN12C renal
# SNB-75 CNS = tested on: SNB-75 CNS
# SR leukemia = tested on: SR leukemia
# SW-620 colon = tested on: SW-620 colon
# T-47D breast = tested on: T-47D breast
# TK-10 renal = tested on: TK-10 renal
# UACC-257 melanoma = tested on: UACC-257 melanoma
# UACC-62 melanoma = tested on: UACC-62 melanoma
smiles,measurement,setting,value
COCCNc1cc(NC(=O)N2CCCc3cc(CN4CCN(C)CC4=O)c(C=O)nc32)ncc1C#N,GI50,786-0 renal,> 100 µM
same,TGI,786-0 renal,> 100 µM
same,GI50,A498 renal,> 100 µM
same,TGI,A498 renal,> 100 µM
same,GI50,A549 NSCLC,> 100 µM
same,TGI,A549 NSCLC,> 100 µM
same,GI50,ACHN renal,> 100 µM
same,TGI,ACHN renal,> 100 µM
same,GI50,CAKI-1 renal,> 100 µM
same,TGI,CAKI-1 renal,> 100 µM
same,GI50,CCRF-CEM leukemia,27 µM
same,TGI,CCRF-CEM leukemia,> 100 µM
same,GI50,COLO 205 colon,> 100 µM
same,TGI,COLO 205 colon,> 100 µM
same,GI50,EKVX NSCLC,> 100 µM
same,TGI,EKVX NSCLC,> 100 µM
same,GI50,HCT-116 colon,> 100 µM
same,TGI,HCT-116 colon,> 100 µM
same,GI50,HCT-15 colon,> 100 µM
same,TGI,HCT-15 colon,> 100 µM
same,GI50,HOP-62 NSCLC,> 100 µM
same,TGI,HOP-62 NSCLC,> 100 µM
same,TGI,HOP-92 NSCLC,> 100 µM
same,GI50,HS 578T breast,> 100 µM
same,TGI,HS 578T breast,> 100 µM
same,GI50,IGROV1 ovarian,> 100 µM
same,TGI,IGROV1 ovarian,> 100 µM
same,GI50,LOX IMVI melanoma,> 100 µM
same,TGI,LOX IMVI melanoma,> 100 µM
same,GI50,MALME-3M melanoma,> 100 µM
same,TGI,MALME-3M melanoma,> 100 µM
same,GI50,MCF7 breast,> 100 µM
same,TGI,MCF7 breast,> 100 µM
same,GI50,MDA-MB-231 breast,> 100 µM
same,TGI,MDA-MB-231 breast,> 100 µM
same,GI50,MDA-MB-435 melanoma,> 100 µM
same,TGI,MDA-MB-435 melanoma,> 100 µM
same,GI50,MDA-MB-468 breast,4.83 µM
same,TGI,MDA-MB-468 breast,> 100 µM
same,GI50,MOLT-4 leukemia,6.8 µM
same,TGI,MOLT-4 leukemia,> 100 µM
same,GI50,NCI-H226 lung,> 100 µM
same,TGI,NCI-H226 lung,> 100 µM
same,GI50,NCI-H322M lung,> 100 µM
same,TGI,NCI-H322M lung,> 100 µM
same,GI50,NCI-H522 lung,> 42.2 µM
same,TGI,NCI-H522 lung,> 100 µM
same,GI50,NCI/ADR-RES ovarian,> 100 µM
same,TGI,NCI/ADR-RES ovarian,> 100 µM
same,GI50,OVCAR-3 ovarian,> 69.3 µM
same,TGI,OVCAR-3 ovarian,> 100 µM
same,GI50,OVCAR-4 ovarian,> 100 µM
same,TGI,OVCAR-4 ovarian,> 100 µM
same,GI50,OVCAR-5 ovarian,> 100 µM
same,TGI,OVCAR-5 ovarian,> 100 µM
same,GI50,OVCAR-8 ovarian,> 100 µM
same,TGI,OVCAR-8 ovarian,> 100 µM
same,GI50,PC-3 prostate,> 100 µM
same,TGI,PC-3 prostate,> 100 µM
same,GI50,RPMI-8226 leukemia,> 21.1 µM
same,TGI,RPMI-8226 leukemia,> 43.9 µM
same,GI50,RXF 393 renal,> 100 µM
same,TGI,RXF 393 renal,> 100 µM
same,GI50,SF-268 CNS,> 100 µM
same,TGI,SF-268 CNS,> 100 µM
same,GI50,SF-295 CNS,> 100 µM
same,TGI,SF-295 CNS,> 100 µM
same,GI50,SF-539 CNS,> 100 µM
same,TGI,SF-539 CNS,> 100 µM
same,GI50,SK-MEL-2 melanoma,> 100 µM
same,TGI,SK-MEL-2 melanoma,> 100 µM
same,GI50,SK-MEL-28 melanoma,> 100 µM
same,TGI,SK-MEL-28 melanoma,> 100 µM
same,GI50,SK-MEL-5 melanoma,> 100 µM
same,TGI,SK-MEL-5 melanoma,> 100 µM
same,GI50,SK-OV-3 ovarian,> 100 µM
same,TGI,SK-OV-3 ovarian,> 100 µM
same,GI50,SN12C renal,> 100 µM
same,TGI,SN12C renal,> 100 µM
same,GI50,SNB-75 CNS,> 100 µM
same,TGI,SNB-75 CNS,> 100 µM
same,GI50,SR leukemia,3.31 µM
same,TGI,SR leukemia,10.8 µM
same,GI50,SW-620 colon,> 100 µM
same,TGI,SW-620 colon,> 100 µM
same,GI50,T-47D breast,> 77.7 µM
same,TGI,T-47D breast,> 100 µM
same,GI50,TK-10 renal,> 84.9 µM
same,TGI,TK-10 renal,> 100 µM
same,GI50,UACC-257 melanoma,> 100 µM
same,TGI,UACC-257 melanoma,> 100 µM
same,GI50,UACC-62 melanoma,> 100 µM
same,TGI,UACC-62 melanoma,> 100 µM
